Reference: US5677297A, “Benzazepine-, benzoxazepine- and benzothiazepine-n-acetic acid derivatives, process for their preparation and pharmaceutical compositions containing them” (Solvay Pharmaceuticals GmbH, priority 1995, dated 1997)

Legend:
[1] = In vivo determination of the effect on diuresis/natriuresis in volume-loaded rats; set-up: species or system rat (male Wistar); conditions: volume loading 120 minutes after administration, urine collected over 60 min
Method: 4. In vivo determination of the effect of the substances on diuresis/natriuresis in volume-loaded rats.
The in vivo activity was investigated in volume-loaded rats. In this experiment a high cardiac filling pressure was caused by infusion of isotonic sodium chloride solution, which results in ANP release and thus diuresis/natriuresis.
The tests are carried out with male Wistar rats having a body weight of 200-400 g. Under neuroleptanalgesia (fentanyl; Hypnorm™, manufactured by Janssen), a catheter was placed in the right femoral vein for the baseline infusion and the volume loading with isotonic sodium chloride solution. After the abdominal cavity had been opened, a second catheter was inserted into the bladder, and the urethra was tied off so that it was possible to measure the urine volume, natriuresis and kaliuresis.
The abdominal cavity was closed again and the animals received a continuous infusion with sodium chloride solution (0.5 ml/100 g body weight) throughout the 2 hours of the test. After an equilibration period of 30 minutes, in a preliminary phase before the test substance was given, urine samples were collected three times over a period of 10 minutes in each case. These preliminary values ("predrug" values) were determined in order to check that there was a continuous flow of urine in the test animals.
The solutions containing test substances were then administered intravenously (bolus injection into the femoral vein) or orally (by gavage) to groups of 10 rats each. With both modes of administration, in each case one control group of animals received only placebo solutions which contained no active substance. 5 Minutes after i.v. administration or 120 minutes after oral administration of the substances, the rats were loaded with an increased volume of sodium chloride solution i.v. (2 ml/100 g body weight in 2 minutes) and the urine was collected over a period of 60 min. The amounts of urine produced in this period were determined, and the sodium and potassium contents therein were measured. The increase in excretion which took place under volume loading by comparison with the preliminary values was deduced from the resulting amounts of urine.
Furthermore, the amounts of sodium and potassium excreted under volume loading after administration of test substance are also indicated as a percentage of the amounts of sodium and potassium excreted under volume loading after placebo administration.

[2] = set-up: species or system mouse (male); conditions: mouse, in vivo, po, 4320 min
Method: 1. Determination of the minimum toxic dose
Male mice weighing 20-25 g received oral administrations of maximum doses of 300 mg/kg of the test substance. The animals were carefully observed for signs of toxicity for 3 hours. In addition, all signs and deaths over a period of 72 hours after administration were recorded. Accompanying signs were likewise observed and recorded. If death or signs of severe toxicity were observed, further mice were given increasingly lower doses until signs of toxicity no longer appeard. The lowest dose which caused death or signs of severe toxicity is indicated in following Table A as the minimum toxic dose. The example numbers listed in Table A refer to the following preparation examples.

[3] = biological target: neutral endopeptidase (NEP), purified NEP (E.C.3.4.24.11) (Homo sapiens, UniProt P08473); assay: In vitro investigation of the NEP-inhibitory effect (hydrolytic degradation of met-enkephalin); assay type: biochemical; conditions: substrate met-enkephalin, 37° C., pH 7.4
Method: 2. In vitro investigation of the NEP-inhibitory effect of the substances and determination of the affinity of the substance molecules for the enzyme molecule. […] The Ki (inhibitor constant) of each substance was determined as a measure of its inhibitory activity. The Ki of a test substance with enzyme-inhibiting activity is the dissociation constant for the enzyme/test substance complex or the (enzyme/substrate)--test substance complex and has units of concentration.
To carry out the test, respective 100 μl samples of various incubation solutions containing 10 ng of purified NEP (E.C.3.4.24.11) and in each case different amounts of test substance and of substrate (met-enkephalin)and 50 mM tris buffer (=tris(hydroxymethyl)aminomethane/HCl, pH 7.4) were prepared.
For each test substance, 24 different incubation solutions were prepared with 3 different test substance concentrations respectively combined with met-enkephalin contents of 2, 5, 7, 10, 12, 15, 40 and 100 μm.
In each test, two types of control incubation solutions were also processed, on the one hand enzyme controls which contain no test substance, and on the other hand substrate controls which contain neither enzyme nor test substance.
The incubation solutions were incubated in a shaking water bath at 37° C. for 45 minutes. The enzyme reaction was started after 15 minutes by adding the substrate (metenkephalin) and was stopped at the end of the incubation time by heating at 95° C. for 5 minutes. The stopped incubation solution was then centrifuged at 12,000×g for 3 minutes, and the concentrations of unreacted substrate and of hydrolysis products formed by the enzymatic reaction were determined in the supernatant. For this purpose, samples of each of the respective supernatants were fractionated by HPLC (high-pressure liquid chromatography) on hydrophobized silica gel, and the products of the enzymatic reaction and unreacted substrate were determined by photometry at a wavelength of 205 nm. The HPLC separation was carried out using a column (4.6×250 mm) which contains Encapharm™ 100 RP18 having an average particle size of 5 μm as reversed phase separation material. The solvent flow rate was 1.4 ml/min, and the column was warmed to 40° C. Mobile phase A was 5 mM H3 PO4, pH 2.5, and mobile phase B was acetonitrile +1% 5 mM H3 PO4, pH 2.5.
The Ki for each test substance was calculated in a known manner from the concentrations of hydrolysis products and unreacted substrate measured in the various samples. […] The example numbers indicated in Table B refer to the following preparation examples.

[4] = biological target: T1, endothelin-converting enzyme (ECE) (Homo sapiens, UniProt P42892); assay: In vitro investigation of the ECE-inhibitory effect (recombinant human ECE in CHO cell membrane fraction); assay type: biochemical; conditions: 24 μM synthetic peptide substrate, pH 7.0, 37° C., 60 min
T1 construct: expressed in transfected cells; host or cells: CHO cells (Chinese hamster ovary), membrane fraction
T1 sequence (P42892 1-770): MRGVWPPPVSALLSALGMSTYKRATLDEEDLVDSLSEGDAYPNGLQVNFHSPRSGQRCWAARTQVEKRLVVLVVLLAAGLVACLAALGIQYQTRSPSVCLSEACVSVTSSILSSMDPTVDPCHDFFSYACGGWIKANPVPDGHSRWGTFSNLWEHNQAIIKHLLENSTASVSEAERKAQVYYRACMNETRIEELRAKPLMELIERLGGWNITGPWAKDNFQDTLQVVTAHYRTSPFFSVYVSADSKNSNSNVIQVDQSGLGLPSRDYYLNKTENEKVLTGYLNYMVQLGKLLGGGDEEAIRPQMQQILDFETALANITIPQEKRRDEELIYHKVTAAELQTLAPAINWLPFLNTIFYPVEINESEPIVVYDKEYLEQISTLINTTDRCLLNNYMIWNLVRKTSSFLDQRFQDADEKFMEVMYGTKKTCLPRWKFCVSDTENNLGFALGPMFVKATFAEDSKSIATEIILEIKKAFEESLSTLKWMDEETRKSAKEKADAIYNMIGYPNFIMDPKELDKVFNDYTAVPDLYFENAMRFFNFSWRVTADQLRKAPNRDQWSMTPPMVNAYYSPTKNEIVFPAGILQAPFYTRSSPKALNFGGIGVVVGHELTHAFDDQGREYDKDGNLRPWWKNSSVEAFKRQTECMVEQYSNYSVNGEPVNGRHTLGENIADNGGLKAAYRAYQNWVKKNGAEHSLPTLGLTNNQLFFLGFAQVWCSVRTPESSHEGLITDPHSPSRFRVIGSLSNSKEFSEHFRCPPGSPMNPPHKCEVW
Method: 3. In vitro investigations of the ECE-inhibitory effect of the substances.
The IC50 of the substances was determined as a measure of their inhibitory activity. The IC50 of a test substance with enzyme-inhibiting activity is the concentration of the test substance at which 50% of the enzymatic activity of ECE is inhibited.
Preparation of the ECE-containing endothelial cell membrane fraction.
Egg cells from the Chinese hamster (Chinese hamster ovary cells, hereinafter CHO cells) in which there was recombinant expression of human ECE [see Schmidt et al., Federation of European Biochemical Societies Letters 356 238-43 (1994)] were lysed, and the cell membranes were removed by centrifugation at 10,000×g for 10 min. The cell membranes were washed by resuspension and repeated centrifugation three times. The ECE-containing cell membrane fraction was resuspended in 100 mM tris/HCl buffer (tris(hydroxymethyl)aminomethane/HCl, pH 7.0, containing 250 mM NaCl) and stored frozen at -70° C. before the enzyme test.
To carry out the test, respective 100 μl samples of various incubation solutions each containing 5 μg protein from an ECE-containing preparation of endothelial cell membranes and different amounts of test substance and 24 μM substrate (synthetic peptide: H2 N-Asp-Ile-Ala-Trp-Phe-Asn-Thr-Pro-Glu-His-Val-Val-Pro-Tyr-Gly-Leu-Gly-COOH) (SEQ ID NO:1) and 100 mM tris buffer (tris(hydroxymethyl)aminomethane/HCl, pH 7.0, containing 250 mM sodium chloride) were prepared. […]
The incubation solutions were preincubated at 37° C. for 15 min before the substrate was added. […] The hydrolysis products H2N-Asp-Ile-Ala-Trp-COOH (SEQ ID NO:2) and H2 N-Phe-Asn-Thr-Pro-Glu-His-Val-Val-Pro-Tyr-Gly-Leu-Gly-COOH (SEQ ID NO:3) formed from the substrate by the enzymatic reaction were determined with the aid of high-pressure liquid chromatography (HPLC). […] The IC50 was calculated for each test substance in a known manner from the concentrations of hydrolysis products measured in the various samples.

Sequence of neutral endopeptidase (NEP), purified NEP (E.C.3.4.24.11) (P08473 whole entry): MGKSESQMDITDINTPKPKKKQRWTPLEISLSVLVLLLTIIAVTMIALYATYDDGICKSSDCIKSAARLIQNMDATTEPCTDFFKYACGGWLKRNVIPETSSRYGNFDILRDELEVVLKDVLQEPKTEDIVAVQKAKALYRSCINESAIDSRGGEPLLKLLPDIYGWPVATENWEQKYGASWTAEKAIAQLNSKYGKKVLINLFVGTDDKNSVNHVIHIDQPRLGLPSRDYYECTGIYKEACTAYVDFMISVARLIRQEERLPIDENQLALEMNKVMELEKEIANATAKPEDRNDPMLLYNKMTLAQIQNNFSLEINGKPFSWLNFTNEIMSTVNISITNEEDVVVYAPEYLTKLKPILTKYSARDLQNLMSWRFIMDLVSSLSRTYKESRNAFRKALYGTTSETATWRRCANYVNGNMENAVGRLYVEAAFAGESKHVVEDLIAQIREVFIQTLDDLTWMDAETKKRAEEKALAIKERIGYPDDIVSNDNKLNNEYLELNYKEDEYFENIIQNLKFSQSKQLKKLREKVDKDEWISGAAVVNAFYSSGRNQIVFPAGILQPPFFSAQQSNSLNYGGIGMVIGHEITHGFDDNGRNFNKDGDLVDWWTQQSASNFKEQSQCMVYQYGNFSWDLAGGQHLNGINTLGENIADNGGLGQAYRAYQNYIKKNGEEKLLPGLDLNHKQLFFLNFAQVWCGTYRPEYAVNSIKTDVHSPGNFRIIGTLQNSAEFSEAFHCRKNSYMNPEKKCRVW

| SMILES | Ki [3] | Minimum toxic dose [2] | further results |
| --- | --- | --- | --- |
| CCOC(=O)[C@H](CCc1ccccc1)CC1(C(=O)N[C@H]2CCc3ccccc3N(CC(=O)O)C2=O)CCCC1 [Example 4, (3S,2'R)-3-{1-[2'-(Ethoxycarbonyl)-4'-phenylbutyl]cyclopentane-1-carbonylamino}-2,3,4,5-tetrahydro-2-oxo-1H-1-benzazepine-1-acetic acid] | – | – | Increase in the excretion of urine under volume loading after administration of test substance as % based on the increase after placebo administration ([1]; 15 mg/kg p.o.): 196.5%; Increase in the excretion of urine under volume loading after administration of test substance as % based on the increase after placebo administration ([1]; 51 mg/kg p.o.): 271% |
| O=C(O)CN1C(=O)C(NC(=O)C2(CC(Cc3ccccc3)C(=O)O)CCCC2)CCc2ccccc21 (stereo not drawn) [Example 27] | – | > 300 mg/kg | – |
| O=C(O)CN1C(=O)[C@@H](NC(=O)C2(C[C@@H](CCc3ccccc3)C(=O)O)CCCC2)CCc2ccccc21 [Example 37] | – | > 300 mg/kg | – |
| O=C(O)CN1C(=O)[C@@H](NC(=O)C2(C[C@@H](CCc3cccc4ccccc34)C(=O)O)CCCC2)CCc2ccccc21 [Example 39] | – | – | IC50 [4]: 520 nM |
| COCCOC[C@H](CC1(C(=O)N[C@H]2COc3ccccc3N(CC(=O)O)C2=O)CCCC1)C(=O)O [Example 11, (3S,2'S)-3-{1-[2'-Carboxy-3'-(2-methoxyethoxy)propyl]cyclopentane-1-carbonylamino}-4-oxo-3,4-dihydro-1,5-benzoxazepine-5(2H)-acetic acid] | 2.55 nM | – | – |
| O=C(O)CN1C(=O)C(NC(=O)C2(CC(CCc3cccc4ccccc34)C(=O)O)CCCC2)CCc2ccccc21 (stereo not drawn) [Example 24] | 1 nM | > 300 mg/kg | – |
| O=C(O)CN1C(=O)C(NC(=O)C2(CC(CCc3ccccc3)C(=O)O)CCCC2)CCc2ccccc21 (stereo not drawn) [Example 6, 3-[1-(2'-Carboxy-4'-phenylbutyl)cyclopentane-1-carbonylamino]-2,3,4,5-tetrahydro-2-oxo-1H-1-benzazepine-1-acetic acid] | 0.67 nM | > 300 mg/kg | – |
| O=C(O)CN1C(=O)C(NC(=O)C2(CC(Cc3cccc4ccccc34)C(=O)O)CCCC2)CCc2ccccc21 (stereo not drawn) [Example 38] | – | – | IC50 [4]: 2200 nM |

More lines, main results first:

| Ki [3] | SMILES | Minimum toxic dose [2] | further results |
| --- | --- | --- | --- |
| 1.22 nM | O=C(O)CN1C(=O)C(NC(=O)C2(CC(CCOc3ccc(F)cc3)C(=O)O)CCCC2)CCc2ccccc21 (stereo not drawn) [Example 26] | – | – |
| 1.08 nM | O=C(O)CN1C(=O)[C@@H](NC(=O)C2(CC(Cc3ccccc3)C(=O)O)CCCC2)CCc2ccccc21 (stereo partly drawn) [Example 29] | – | – |
| 0.76 nM | O=C(O)CN1C(=O)[C@@H](NC(=O)C2(CC(CCOc3ccc(F)cc3)C(=O)O)CCCC2)CSc2ccccc21 (stereo partly drawn) [Example 13, (3R)-3-{1-[2'-Carboxy-4'-(4-fluorophenoxy)butyl]cyclopentane-1-carbonylamino}-4-oxo-3,4-dihydro-1,5-benzothiazepine-5(2H)-acetic acid] | – | – |
| 2.15 nM | COCCOC[C@H](CC1(C(=O)N[C@H]2CCc3ccccc3N(CC(=O)O)C2=O)CCCC1)C(=O)O [Example 22] | – | – |
